For six molecules, Ki and Ratio Ki results are on record in ChEMBL document CHEMBL3817799, “N-Nitrosulfonamides: A new chemotype for carbonic anhydrase inhibition” (Bioorg Med Chem, 2016).

Assay [1] in a line: Inhibition of Malassezia globosa beta carbonic anhydrase preincubated for 15 mins prior to testing by stopped flow CO2 hydrase assay.
Assay [2] has as its target Carbonic anhydrase 9 (Homo sapiens, UniProt Q16790). Nature of the assay: Inhibition of human recombinant carbonic anhydrase 9 preincubated for 15 mins prior to testing by stopped flow CO2 hydrase assay.
Assay [3] addresses Carbonic anhydrase 2 (Homo sapiens, UniProt P00918). In words: Inhibition of human recombinant carbonic anhydrase 2 preincubated for 15 mins prior to testing by stopped flow CO2 hydrase assay.
Assay [4] relates to Malassezia globosa. In words: Potency index, ratio of acetazolamide Ki to compound Ki for Malassezia globosa beta carbonic anhydrase.

With `CC(=O)Nc1nnc(S(N)(=O)=O)s1` [ACETAZOLAMIDE], the affinity in assay [1], expressed as Ki, was 74 µM.
`NCc1ccc(S(=O)(=O)N[N+](=O)[O-])cc1`: the values for the inhibitory constant (Ki) in assay [2] and in assay [1] were 5.99 µM and 8.09 µM, respectively.
As for `Nc1nnc(S(=O)(=O)N[N+](=O)[O-])s1`, the inhibitory constant (Ki) (in general, a dissociation constant, usually derived from enzyme kinetics or from competition with a known ligand) in assay [3] is 4.52 µM; in assay [2], 0.84 µM; in assay [1] it was 4.5 µM. Moreover, the Ratio Ki in assay [4] stood at 10.
On to `CN(C)c1ccc(S(=O)(=O)N[N+](=O)[O-])cc1`, for which the Ki was above 50 µM in assay [3] and 0.22 µM in assay [1]. For the same molecule, the Ratio Ki in assay [4] amounted to 10.
Turning to `N#CCNc1ccc(S(=O)(=O)N[N+](=O)[O-])cc1`, the Ki in assay [3] is 1.35 µM; in assay [2], 2 µM; in assay [1], 3.49 µM. For the same molecule, the Ratio Ki in assay [4] is 10.
Taken in the same sequence, the figures for `Nc1cccc(S(=O)(=O)N[N+](=O)[O-])c1` were 5.11 µM, above 50 µM, 2.75 µM and 10.
